Values after ≈ are worked out from the molar mass of the structure shown.
Legend:
[1] = system: Bacillus subtilis; assay: Toxicity (MIC) of dialkylated lariat ethers on B. subtilis; assay type: cell-based; details: B. subtilis 168 WT, 12 h, visual turbidity, read-out: minimum inhibitory concentration (MIC)
Procedure: (§1) The cyto-toxicity was determined by measuring the minimum inhibitory concentrations (MIC) for this series of dialkylated lariat ethers in the Gram-negative bacteria Escherichia coli, the Gram-positive bacteria Bacillus subtilis, and human embryonic kidney (HEK293T) cells.
On bacteria. XL1 blue strain Escherichia coli cells transformed with a pET28a plasmid (which contains a kanamycin resistance gene) were grown at 37° C. in 2 mL of LB medium (Miller's LB broth, Research Products International) supplemented with 50 μg/mL of kanamycin until the optical density (600 nm) reached 0.600. The starting density of bacteria in the remainder of the experiments was a 1/100 dilution of this bacterial density, which was split into 4 mL cultures. A series of 400, 100, 10 and 5 mM stock solutions of each dialkylated diaza(18-crown-6) compounds in trifluoroethanol (TFE) were diluted by adding to the 4 mL cultures until final concentrations of 400, 200, 100, 50, 20, 15, 10, 5, 4, 3, 2 and 1 μM were reached, with the final TFE concentration never >0.1% v/v. Negative controls in the presence of TFE 0.1% v/v or the absence of any treatment were done for each batch. The cultures were incubated at 37° C. with agitation for 12 h. Bacillus subtilis (168 WT) toxicity tests were carried out using an identical protocol, except for the addition of the antibiotic. […] Each compound was assayed a minimum of three times at each tested concentration.

[2] = system: HEK293T cells; assay type: cell-based; details: human, 48 h
Procedure: as §1
On HEK293T cells. Human embryonic kidneys (HEK293T) cells (Thermofisher Scientific) were grown attached in cell culture dishes, detached by trypsin treatment and diluted in Dulbecco's Modified Eagle's Medium (DMEM) medium supplemented with phenol red indicator (Thermofisher scientific) until the density reached 100,000 viable cells/mL. An aliquot of 1 mL of this cell suspension was added to each well of a 24-wells culture plate. After 2 h, when the cells were already attached, a custom amount of 400, 100, 10 or 5 mM TFE solution of the dialkylated diaza(18-crown-6) ether compounds were added until final concentration of 400, 200, 100, 50, 20, 15, 10, 8, 6, 5, 4, 3, 2 or 1 μM were reached. The final TFE concentration never was over 0.1% v/v. Negative controls in the presence of TFE 0.1% v/v or the absence of any treatment were done for each plate. The plates were cultured at 37° C. The MIC was determined as the lowest compound concentration that killed all the cells after 48 h, as judged by trypan blue dye. […]

[3] = system: B. subtilis cells; assay: Lactate dehydrogenase release (resofurin fluorescence), lariat ether; assay type: cell-based, Bacillus subtilis; details: 2 μM, 37° C, lithium lactate/NAD+ solution
Source text: A well-established assay was utilized to measure cell lysis by monitoring the release of the enzyme lactate dehydrogenase (LDH), which is ubiquitous in the cytoplasm of all cell types. The tetrameric active form of LDH catalyzes the final step of the glycolysis in B. subtilis and has a molecular weight of approximately 146 kDa in, with a nearly globular shape of an approximated radius of 80 Å (PDB ID: 3PQD). […] LDH couples two redox reactions, the first involving the interconversion of pyruvate (oxidized) and L-lactate (reduced) and the second, the interconversion of NAD^+ (oxidized) and NADH (reduced). The NADH oxidation can be coupled to the diaphorase-catalyzed […] of resazurin to resofurin, which is highly fluorescent. When the concentrations of L-lactate, NAD^+, diaphorase, and resazurin are saturated, the rate of increase in the resofurin fluorescence is limited only by the amount of available LDH in the medium.
To prepare the experiment, a 2-mL liquid culture of B. subtilis cells was grown at 37° C. in media until OD600=0.600, and then collected by centrifugation at 2000 rpm during 3 min. […] Fluorescence intensity was recorded each second using a Horiba Fluoromax 4 spectrometer (excitation wavelength=550 nm; emission wavelength=583 nm). […] To normalize, the fluorescence was divided by the fluorescence level just before timepoint t4. […]

[4] = system: Escherichia coli; assay: Toxicity (MIC) of dialkylated lariat ethers on E. coli; assay type: cell-based; details: E. coli XL1 blue, 12 h, visual turbidity, read-out: minimum inhibitory concentration (MIC)
Procedure: as §1
On bacteria. XL1 blue strain Escherichia coli cells transformed with a pET28a plasmid (which contains a kanamycin resistance gene) were grown at 37° C. in 2 mL of LB medium (Miller's LB broth, Research Products International) supplemented with 50 μg/mL of kanamycin until the optical density (600 nm) reached 0.600. The starting density of bacteria in the remainder of the experiments was a 1/100 dilution of this bacterial density, which was split into 4 mL cultures. A series of 400, 100, 10 and 5 mM stock solutions of each dialkylated diaza(18-crown-6) compounds in trifluoroethanol (TFE) were diluted by adding to the 4 mL cultures until final concentrations of 400, 200, 100, 50, 20, 15, 10, 5, 4, 3, 2 and 1 μM were reached, with the final TFE concentration never >0.1% v/v. Negative controls in the presence of TFE 0.1% v/v or the absence of any treatment were done for each batch. The cultures were incubated at 37° C. with agitation for 12 h. Bacillus subtilis (168 WT) toxicity tests were carried out using an identical protocol, except for the addition of the antibiotic. […]

minimum inhibitory concentration (MIC) [2]: 6 µM (≈ 3.26 µg/mL)
SMILES: CCCCCCCCCCN1CCOCCOCCN(CCCCCCCCCC)CCOCCOCC1 [LEC10, Didecyl diaza(18-crown-6)]
MIC [1]: 2 µM (≈ 1.09 µg/mL)
resofurin fluorescence (LDH release) [3]: rapid rise in the fluorescence
MIC [4]: 10 µM (≈ 5.43 µg/mL)
